Converted amounts (≈) assume the structure as drawn.
Columns and labels:
[1] = test system: Bi. breve; assay: MIC against human normal gut microbiota: Bifidobacterium breve; type: cell-based; settings: Bi. breve HM 856
Description: (§1) The activity of the selected lactones against the human gut microbiota was also examined. Microbiota interfere with C. difficile's ability to colonize the gastrointestinal tract and subsequently cause infection. Many antibiotics inhibit/kill the endogenous microflora, which permits enhanced colonization by C. difficile and infection. Three different bacterial species that are present in the gut microflora were used in this experiment; Bifidobacterium (anaerobic Gram-positive bacteria), Bacteroides (anaerobic Gram-negative bacteria) and Lactobacillus (microaerophilic Gram-positive bacteria). Ideal compounds/drugs are those with selective antibacterial activity against C. difficile so as to protect the indigenous microflora present in the GI tract from being damaged/killed (which will exacerbate infections caused by C. difficile).
(§2) Bifidobacterium and Bacteroides were first grown for 48 hours at 37° C., anaerobically, using brain heart infusion supplemented (BHIS) agar (brain heart infusion agar supplemented with hemin, vitamin K and L-cysteine). Lactobacillus was cultivated on MRS agar and incubated in the presence of 5% CO2 for 48 hours at 37° C. Each bacterium was suspended in phosphate-buffered saline (PBS) to achieve 0.5 McFarland standard and subsequently diluted in brain heart infusion supplemented broth (for Bifidobacterium and Bacteroides) or in MRS broth (for Lactobacillus) to achieve a bacterial inoculum of approximately 5×10^5 CFU/mL. Bacteria were then seeded in 96-well plates containing serial dilutions of the compounds and incubated for 48 hours. MICs reported in Table 4 are the minimum concentration of compound/control drug that inhibited the visual growth of bacteria.

[2] = test system: L. gasseri; assay: MIC against human normal gut microbiota: L. gasseri; type: cell-based, Lactobacillus gasseri; settings: L. gasseri HM 407
Description: as §1, §2

[3] = test system: L. casei; assay: MIC against human normal gut microbiota: L. casei; type: cell-based, Lactobacillus casei; settings: L. casei HM 334
Description: as §1, §2

[4] = test system: MRSA (USA300); assay: microbe, parasite or virus in culture; type: cell-based, Staphylococcus aureus; settings: aerobic, 37° C., at least 18 hours
Procedure: (§3) Method: The minimum inhibitory concentration (MIC) of the compounds and control drugs, linezolid (antibiotic), vancomycin (antibiotic), 5-fluorocytosine (5-FC, antifungal drug), and fluconazole (antifungal drug) was determined using the broth microdilution method according to the guidelines outlined by the Clinical and Laboratory Standards Institute (CLSI) against clinically relevant bacterial (methicillin-resistant Staphylococcus aureus (MRSA), vancomycin-resistant Enterococcus faecalis (VRE), vancomycin-resistant Enterococcus faecium (VRE), Clostridioides difficile and Escherichia coli) and fungal (Candida albicans) strains. A solution equivalent to 0.5 McFarland standard was prepared from each strain and diluted in cation-adjusted Mueller-Hinton broth (for S. aureus and E. coli), tryptone soy broth (for E. faecalis), or brain heart infusion broth (for E. faecium) to achieve a bacterial inoculum of about 5×10^5 CFU/mL. C. difficile strains were cultured in brain heart infusion broth supplemented with hemin and vitamin K. C. albicans was diluted in RPMI medium supplemented with 3-(N-morpholino) propanesulfonic acid to achieve a fungal concentration of about 1.5×10^3 CFU/mL. Compounds and control drugs were added in the first row of the 96-well plates and diluted with media containing bacteria (to achieve a concentration gradient ranging from 128 to 1 μg/mL). For MRSA, VRE, and E. coli strains, plates were then incubated aerobically at 37° C. for at least 18 hours. C. albicans was incubated aerobically at 37° C. for 24 hours. Plates containing C. difficile were incubated anaerobically at […] for 48 hours.

[5] = test system: Ba. dorsei; assay: MIC against human normal gut microbiota: Bacteroides dorsei; type: cell-based
Description: as §1, §2

[6] = test system: clinically important Clostridioides difficile strains; assay: MIC against clinically important Clostridioides difficile strains; type: cell-based
Procedure: (§4) The antibacterial activity of compounds 48, 50, 51, 61 and 85 against a panel of Clostridioides difficile strains was evaluated. A bacterial solution equivalent to 0.5 McFarland standard was prepared and diluted in brain heart infusion broth supplemented with hemin and vitamin K. Compounds and control drugs were added in the first row of 96-well plates and serially diluted with media containing bacteria (to achieve a concentration gradient ranging from 128 to 1 μg/mL). Plates were then incubated anaerobically at […] for 48 hours.

[7] = test system: Bi. longum; assay: MIC against human normal gut microbiota: Bifidobacterium longum; type: cell-based; settings: Bi. longum HM 848
Description: as §1, §2

[8] = test system: Clostridioides difficile; assay: MIC by broth microdilution against Clostridioides difficile (Table 1); type: cell-based; settings: anaerobic, 48 hours; strain BAA-1870
Procedure: as §3

[9] = test system: L. reuteri; assay: MIC against human normal gut microbiota: L. reuteri; type: cell-based, Lactobacillus reuteri; settings: L. reuteri HM 120
Description: as §1, §2

[10] = test system: L. crispatus; assay: MIC against human normal gut microbiota: L. crispatus; type: cell-based, Lactobacillus crispatus
Description: as §1, §2

[11] = test system: hypervirulent Clostridioides difficile strains; assay: MIC against hypervirulent Clostridioides difficile strains; type: cell-based
Procedure: as §4

[12] = test system: Ba. fragilis; assay: MIC against human normal gut microbiota: Bacteroides fragilis; type: cell-based
Description: as §1, §2

## COc1cc(C2OC(=O)C(CN3CCCCC3)C2c2ccccc2Br)ccc1OCc1ccccc1 (racemic) [Compound 27]
[1]
  MIC: >128 µg/mL
[2]
  MIC: >128 µg/mL
[3]
  MIC: >128 µg/mL
[4]
  MIC MRSA (USA300): >128 µg/mL
[5]; Ba. dorsei HM 29
  MIC: >128 µg/mL
[5]; Ba. dorsei HM 717
  MIC: >128 µg/mL
[6]; CD strain 16
  MIC: 1 µg/mL (≈ 1.82 µM)
[6]; CD strain 18
  MIC: 2 µg/mL (≈ 3.63 µM)
[6]; CD strain 19
  MIC: 1 µg/mL (≈ 1.82 µM)
[6]; CD strain 1801
  MIC: 1 µg/mL (≈ 1.82 µM)
[6]; CD strain 43255
  MIC: 1 µg/mL (≈ 1.82 µM)
[6]; CD strain P6
  MIC: 2 µg/mL (≈ 3.63 µM)
[6]; CD strain P7
  MIC: 1 µg/mL (≈ 1.82 µM)
[6]; CD strain P13
  MIC: 1 µg/mL (≈ 1.82 µM)
[6]; CD strain P19
  MIC: 2 µg/mL (≈ 3.63 µM)
[7]
  MIC: >128 µg/mL
[8]
  MIC Clostridioides difficile: 1 µg/mL (≈ 1.82 µM)
[9]
  MIC: >128 µg/mL
[10]; L. crispatus HM 375
  MIC: >128 µg/mL
[10]; L. crispatus HM 421
  MIC: >128 µg/mL
[11]; CD strain 81
  MIC: 2 µg/mL (≈ 3.63 µM)
[11]; CD strain 82
  MIC: 2 µg/mL (≈ 3.63 µM)
[11]; CD strain 83
  MIC: 2 µg/mL (≈ 3.63 µM)
[11]; CD strain 84
  MIC: 4 µg/mL (≈ 7.27 µM)
[11]; CD strain 85
  MIC: 2 µg/mL (≈ 3.63 µM)
[11]; CD strain 86
  MIC: 2 µg/mL (≈ 3.63 µM)
[11]; CD strain 87
  MIC: 2 µg/mL (≈ 3.63 µM)
[11]; CD strain 90
  MIC: 1 µg/mL (≈ 1.82 µM)
[11]; CD strain 49279
  MIC: 2 µg/mL (≈ 3.63 µM)
[11]; CD strain 49287
  MIC: 1 µg/mL (≈ 1.82 µM)
[11]; CD strain 49291
  MIC: 1 µg/mL (≈ 1.82 µM)
[12]; Ba. fragilis HM 709
  MIC: >128 µg/mL
[12]; Ba. fragilis HM 710
  MIC: >128 µg/mL
[12]; Ba. fragilis HM 711
  MIC: >128 µg/mL
[12]; Ba. fragilis HM 714
  MIC: >128 µg/mL

From patent publication US20250195490A1, “ALPHA-METHYLENE AND AMINOMETHYL LACTONES AND LACTAMS FOR TREATMENT OF CLOSTRIDIOIDES DIFFICILE INFECTION (CDI)” (Purdue Research Foundation, priority 2022, published 2025)
